Assay results from patent publication US9365574B2, “Soluble guanylate cyclase activators” (Merck Sharp & Dohme Corp., priority 2010, dated 2016).

Target: T1, sGC (Homo sapiens, UniProt Q02108+Q02153)
T1 construct: expressed in transfected cells; host or cells: CHO-K1 (clone #7, CHO-K1/sGC)
T1 sequence (Q02108 1-690): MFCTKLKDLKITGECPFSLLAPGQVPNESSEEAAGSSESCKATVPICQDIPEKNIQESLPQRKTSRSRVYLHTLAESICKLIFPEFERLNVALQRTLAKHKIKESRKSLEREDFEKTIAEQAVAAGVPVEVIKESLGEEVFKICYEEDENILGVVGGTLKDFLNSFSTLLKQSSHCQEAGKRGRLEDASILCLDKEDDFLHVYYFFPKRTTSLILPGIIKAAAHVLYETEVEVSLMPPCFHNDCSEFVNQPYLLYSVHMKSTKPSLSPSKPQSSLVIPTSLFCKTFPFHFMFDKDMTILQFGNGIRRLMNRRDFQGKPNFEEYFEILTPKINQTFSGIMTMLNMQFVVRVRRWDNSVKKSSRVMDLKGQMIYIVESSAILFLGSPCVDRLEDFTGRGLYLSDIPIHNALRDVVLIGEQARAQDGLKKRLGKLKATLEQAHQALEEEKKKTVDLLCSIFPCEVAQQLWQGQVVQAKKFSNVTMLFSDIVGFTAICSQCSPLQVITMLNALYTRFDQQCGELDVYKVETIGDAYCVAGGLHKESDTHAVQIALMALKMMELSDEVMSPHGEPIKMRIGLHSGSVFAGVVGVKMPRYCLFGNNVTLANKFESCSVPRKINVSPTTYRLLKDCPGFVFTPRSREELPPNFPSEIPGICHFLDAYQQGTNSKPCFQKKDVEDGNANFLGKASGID
T1 sequence (Q02153 1-619): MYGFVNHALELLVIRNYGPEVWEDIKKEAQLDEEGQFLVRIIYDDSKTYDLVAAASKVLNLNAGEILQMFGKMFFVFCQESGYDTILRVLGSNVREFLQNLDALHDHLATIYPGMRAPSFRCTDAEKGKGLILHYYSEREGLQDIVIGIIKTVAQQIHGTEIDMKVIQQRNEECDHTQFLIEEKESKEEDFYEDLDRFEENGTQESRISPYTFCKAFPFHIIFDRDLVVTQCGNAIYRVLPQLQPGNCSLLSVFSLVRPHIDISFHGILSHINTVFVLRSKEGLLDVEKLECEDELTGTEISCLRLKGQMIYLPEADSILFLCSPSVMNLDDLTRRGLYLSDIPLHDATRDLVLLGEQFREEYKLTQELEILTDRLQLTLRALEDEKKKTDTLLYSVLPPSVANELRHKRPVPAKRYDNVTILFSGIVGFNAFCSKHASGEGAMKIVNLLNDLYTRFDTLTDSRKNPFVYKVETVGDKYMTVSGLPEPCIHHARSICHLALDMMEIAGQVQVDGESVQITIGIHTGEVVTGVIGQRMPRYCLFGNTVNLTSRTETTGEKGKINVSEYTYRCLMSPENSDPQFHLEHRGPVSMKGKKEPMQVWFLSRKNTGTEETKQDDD
Assay: Cell-based sGC Functional Assay (CASA Assay), cGMP generation in CHO-K1/sGC cells
Conditions: without ODQ incubation; for EC50: read-out: inflection points (IP)
Source text: Cell-based sGC Functional Assay (CASA Assay)
sGC is a heme-containing enzyme that converts GTP to secondary messenger cGMP. Increases in cGMP levels affect several physiological processes including vasorelaxation through multiple downstream pathways. […] Heme-dependent activators (HDAs) preferentially activate sGC containing a ferrous heme group. To determine the effect of sGC activators on enzyme activity, the CASA assay was developed to monitor the generation of cGMP in a cell line that stably expresses the heterodimeric sGC protein.
A CHO-K1 cell line stably expressing the sGC a up heterodimer was generated using a standard transfection protocol. CHO-K1 cells were transfected with plasmids pIREShyghsGCα1 and pIRESneo-hsGCβ1 simultaneously using FUGENE reagent. Clones that stably express both subunits were selected with hygromycin and neomycin for weeks. Clone #7 was chosen for the assay and was designated CHO-K1/sGC. CHO-K1/sGC cells were maintained in F-K12 medium containing 10% heat-inactivated Fetal Bovine Serum (FBS), 100 μg/mL penicillin/streptomycin, 0.5 mg/mL hygromycin and 0.25 mg/mL G418. On the day of the assay, cells were harvested in EBSS Assay Buffer (EAB) containing 5 mM MgCl2, 10 mM HEPES (4-(2-hydroxyethyppiperazine-1-ethanesulfonic acid) and 0.05% BSA (bovine serum albumin) and cell density was adjusted to 2×10^6/mL with EAB. IBMX (3-isobutyl-1-methylxanthin, 0.5 mM) was added to inhibit degradation of cGMP. Compounds were diluted from DMSO stock solutions and added to the assay at a final DMSO concentration of 1%. Cells were incubated with compounds in the presence and absence of 10 μM of 1H-(1,2,4)oxadiazolo(4,3-a) quinoxalin-1-one (ODQ) for 1 hr at 37° C. At the end of the incubation period, the reaction was terminated and the cells were lysed. The level of intracellular cGMP was determined using an HTRF-based assay kit (CisBio, 62GM2PEC), which detects the displacement of a fluorescence labeled cGMP from its specific antibody. The amount of cGMP was plotted against compound concentration in PRISM software and the IP and maximum fold induction over DMSO control were derived from the plot.

Row | Structure (SMILES) | Maximum fold induction over DMSO control | EC50
1 | CC1(c2ccccc2)C(=O)Nc2nc(-c3nc(CCC(F)(F)C(F)(F)F)n4cc(Cl)ccc34)nc(N)c21 (stereo not shown) [Example 136, 4-amino-2-[6-chloro-3-(3,3,4,4,4-pentafluorobutyl)imidazo[1,5-a]pyridin-1-yl]-5-methyl-5-phenyl-5,7-dihydro-6H-pyrrolo[2,3-d]pyrimidin-6-one] | 52 | 139 nM
2 | CC1(c2ccc(F)cc2)C(=O)Nc2nc(-c3nc(CCC(F)(F)C(F)(F)F)n4cc(Cl)ccc34)nc(N)c21 (stereo not shown) [Example 105, 4-Amino-2-[6-Chloro-3-(3,3,4,4,4-Pentafluorobutyl)Imidazo[1,5-A]Pyridin-1-yl]-5-(4-Fluorophenyl)-5-Methyl-5,7-Dihydro-6H-Pyrrolo[2,3-D]Pyrimidin-6-One] | 150 | 258 nM
3 | CC1(c2ccccc2)C(=O)Nc2nc(-c3nn(CCC(F)(F)C(F)(F)F)c4cc(Cl)ccc34)nc(N)c21 (stereo not shown) [Example 58, 4-Amino-2-[6-Chloro-1-(3,3,4,4,4-Pentafluorobutyl)-1H-Indazol-3-yl]-5-Methyl-5-Phenyl-5,7-Dihydro-6H-Pyrrolo[2,3-D]Pyrimidin-6-One] | 225 | 50 nM

The next lines start with the values.

Row | Maximum fold induction over DMSO control | EC50 | Structure (SMILES)
4 | 156 | 212 nM | CC1(c2ccccc2)C(=O)Nc2nc(-n3nc(CCC(F)(F)C(F)(F)F)c4cc(F)ccc43)nc(N)c21 (stereo not shown) [Example 26, 4-amino-2-[5-fluoro-3-(3,3,4,4,4-pentafluorobutyl)-1H-indazol-1-yl]-5-methyl-5-phenyl-5,7-dihydro-6H-pyrrolo[2,3-d]pyrimidin-6-one]
5 | 126 | 46 nM | CC1(c2ccccc2)C(=O)Nc2nc(-c3nn(CCC(F)(F)C(F)(F)F)c4cc(F)ccc34)nc(N)c21 (stereo not shown) [Example 70, 4-amino-2-[6-fluoro-1-(3,3,4,4,4-pentafluorobutyl)-1H-indazol-3-yl]-5-methyl-5-phenyl-5,7-dihydro-6H-pyrrolo[2,3-d]pyrimidin-6-one]
